Measured values: patent US20060147538A1, “Nanocomposite drug delivery composition” (THE QUEEN'S UNIVERSITY OF BELFAST, priority 2003, published 2006)

How the values were obtained:
[1] = Drug release studies, polymer-drug-clay disks (Example 3); format: physicochemical
From the text: In a one embodiment the discs were 18 mm in diameter and 1 mm thick. Different sizes or shapes of discs will influence the release rate of the drug.

[2] = Drug release studies, polymer-drug-clay extrudate (Example 3); format: physicochemical
From the text: PEGIB is PEG+ibuprofen, PEGIBM is PEG+ibuprofen+montmorillonite (natural clay) and PEGIBS is PEG+ibuprofen+synthetic clay. In one embodiment the extrudate is rod shaped with a diameter of 1 mm.
In one embodiment the extrudate is rod shaped with a diameter of 1 mm.

Time 50% release ([1]; PEG-Ibuprofen-Clay Disks)	Time 80% release ([1]; PEG-Ibuprofen-Clay Disks)	Time 100% release ([1]; PEG-Ibuprofen-Clay Disks)	Time 50% release ([2]; PEG-Ibuprofen-Clay Extrudate)	Time 80% release ([2]; PEG-Ibuprofen-Clay Extrudate)	Time 100% release ([2]; PEG-Ibuprofen-Clay Extrudate)	Time 50% release ([1]; PCL-Paracetamol-Clay Disks)	Time 80% release ([1]; PCL-Paracetamol-Clay Disks)	Time 100% release ([1]; PCL-Paracetamol-Clay Disks)	Time 50% release ([1]; PEG-Paracetamol-Clay Disks)	Time 80% release ([1]; PEG-Paracetamol-Clay Disks)	Time 100% release ([1]; PEG-Paracetamol-Clay Disks)	Time 50% release ([2]; PCL-Paracetamol-Clay Extrudate)	Time 80% release ([2]; PCL-Paracetamol-Clay Extrudate)	Time 100% release ([2]; PCL-Paracetamol-Clay Extrudate)	Time 50% release ([2]; PEG-Paracetamol-Clay Extrudate)	Time 80% release ([2]; PEG-Paracetamol-Clay Extrudate)	Time 100% release ([2]; PEG-Paracetamol-Clay Extrudate)	SMILES
<5 min	<5 min	10 min	<5 min	<5 min	10 min	–	–	–	–	–	–	–	–	–	–	–	–	CC(C)Cc1ccc(C(C)C(=O)O)cc1 (stereo not drawn) [Ibuprofen Powder, ibuprofen]
–	–	–	–	–	–	<5 min	<5 min	<5 min	<5 min	<5 min	<5 min	<5 min	<5 min	<5 min	<5 min	<5 min	<5 min	CC(=O)Nc1ccc(O)cc1 [Paracetamol powder, paracetamol]
